Measured values as given in US8455523B2, “Compositions and methods for treating hyperlipidemias” (The Research Foundation of State University of New York, priority 2010, dated 2013).

Legend:
Reversa mice = system: Reversa mice
Experimental: FIG. 11. Reversa animals were injected with plpC every other day for one week. Lovastatin, T-090317 and WY14643 were administered by oral gavage everyday for 30 days after the first injection. Animals were sacrificed on day 30 and plasma and livers were harvested and analyzed. * represent comparison to PBS injected animals and # represent comparisons to plpC control.
Animals: Mttp^tm2Sgy LdIr^tm1Her Apob^tm2Sgy Tg(Mx1-cre)1Cgn/J mice (Reversa) (stock number 004192) were obtained from Jackson Laboratories. Male reversa mice were used to study the effect of mttp gene deletion on plasma and tissue lipids. These animals are transgenic for apolipoprotein B, LDLR^−/− and floxed at exon 1 of the mttp locus. In addition, these mice express cre recombinase under the control of the Mx1 promoter, which is induced after intraperitoneal injection of polyinosinic polycytidylic ribonucleic acid (plpC—Sigma) in the liver, spleen and intestine. Injection of plpC activates the cre recombinase and deletes the mttp gene in the liver and intestines. Reversa mice were injected with either PBS or plpC. Mice injected with plpC were orally gavaged with DMSO (Sigma-Aldrich D8418), DMSO+Lovastatin (50 mg/kg/day) (Calbiochem 438186), DMSO+T0901317 (50 mg/kg/day) (Calbiochem 575310), or DMSO+WY14643 (10 mg/kg/day) (Calbiochem 681725). Mice injected with plpC were also injected with either PBS or Ω-3 fatty acids (SUNY Downstate Medical Center). All animals were given supplemental treatments for 30 days.
All animals were kept in 07:00-19:00 h lighting schedule. […] Food was withdrawn 16 h before the sacrifice of the mice. On the day of the experiment, mice were anesthetized and blood was collected from the heart. Liver was collected, washed in ice-cold PBS, cut into small pieces and used for lipid extraction, histological staining, to measure different protein activities/quantities and for mRNA analysis. Lipids were extracted from the tissue homogenates following the Bligh and Dyer method. Triglyceride (Infinity TM Triglyceride, TR22421) and total cholesterol (Infinity TM Cholesterol, TR13421) levels in the tissues were determined using commercial kits (Thermo Scientific). Free cholesterol and free fatty acid levels were measured using kits from Wako Chemicals (Germany). Esterified cholesterol was calculated by subtracting the free cholesterol from the total cholesterol.
To determine whether accumulation of hepatic triglyceride and free cholesterol is related to increases in plasma AST/ALT, we sought to reduce these lipids using different chemical compounds of known physiologic effects. Mice injected with plpC were orally gavaged with DMSO, DMSO+Lovastatin (50 mg/kg/day), DMSO+T0901317 (50 mg/kg/day), or DMSO+WY14643 (10 mg/kg/day). Lovastatin (Lova), an HMG-CoA reductase (HMGR) inhibitor, and T0901317 (T0), an LXR agonist, are expected to decrease hepatic free cholesterol by inhibiting endogenous cholesterol synthesis and increasing cholesterol efflux, respectively. WY14643 (WY), a PPARα agonist, increases β-oxidation of fatty acids and lowers hepatic triglycerides.
To evaluate the efficacy of Ω-3 FA in reducing hepatic triglyceride, plpC injected mice were treated with intraperitoneal injection of Ω-3 FA (3 mg/kg/2 day) or Ω-3 FA and Lova.

[1] = system: C57Bl/6J mice fed western diet; assay: MTP inhibitor CP-346086 with or without lovastatin or WY14643 in western diet fed mice: plasma/hepatic lipids, AST/ALT; type: in vivo; settings: WD 8 weeks
Experimental: FIGS. 4a and 4b. Effect of MTP inhibitor (CP-34086) on plasma lipids and lipoproteins in C57Bl/6J mice fed western diet ad libitum for 8 weeks. MTP inhibitor solubilzed in DMSO was administered orally for one week (15 mg/kg/day) along with either DMSO (MTPi), lovastatin (50 mg/kg/day), or WY14643 (10 mg/kg/day). Control mice were gavaged with DMSO only.
FIGS. 5a and 5b. Liver samples from FIG. 4 were used to measure MTP activity (A) and hepatic lipids (B-E). Stars on MPTi group represent comparison between Control and MTPi groups.
Control group (n=4) received daily oral gavage of DMSO alone. MTPi group received 15 mg/kg/day MTP inhibitor CP-346086 (MTPi) once daily. […] Plasma total and HDL cholesterol were unaffected by MTPi. Combined treatment of MTPi and lovastatin decreased plasma LDL cholesterol. […] Next, we measured changes in plasma hepatic enzymes (FIGS. 4G-H). […] These studies indicate that apart from lowering plasma triglyceride, MTPi enhances plasma AST/ALT and these increases can be avoided by the co-administration of lovastatin.

MTP = target: T1, MTP (Mus musculus, UniProt O08601); assay: Determination of MTP activity in tissues (liver homogenates of treated mice); type: in vivo; settings: Reversa mice, plpC vs PBS
T1 construct: small pieces (0.1 g) of liver and ˜1-cm segments of proximal small intestine were homogenized; from tissue; host or cells: mouse liver (C57BL/6J; Reversa mice in some experiments); supernatant of ultracentrifuged homogenate
T1 sequence (O08601 22-894): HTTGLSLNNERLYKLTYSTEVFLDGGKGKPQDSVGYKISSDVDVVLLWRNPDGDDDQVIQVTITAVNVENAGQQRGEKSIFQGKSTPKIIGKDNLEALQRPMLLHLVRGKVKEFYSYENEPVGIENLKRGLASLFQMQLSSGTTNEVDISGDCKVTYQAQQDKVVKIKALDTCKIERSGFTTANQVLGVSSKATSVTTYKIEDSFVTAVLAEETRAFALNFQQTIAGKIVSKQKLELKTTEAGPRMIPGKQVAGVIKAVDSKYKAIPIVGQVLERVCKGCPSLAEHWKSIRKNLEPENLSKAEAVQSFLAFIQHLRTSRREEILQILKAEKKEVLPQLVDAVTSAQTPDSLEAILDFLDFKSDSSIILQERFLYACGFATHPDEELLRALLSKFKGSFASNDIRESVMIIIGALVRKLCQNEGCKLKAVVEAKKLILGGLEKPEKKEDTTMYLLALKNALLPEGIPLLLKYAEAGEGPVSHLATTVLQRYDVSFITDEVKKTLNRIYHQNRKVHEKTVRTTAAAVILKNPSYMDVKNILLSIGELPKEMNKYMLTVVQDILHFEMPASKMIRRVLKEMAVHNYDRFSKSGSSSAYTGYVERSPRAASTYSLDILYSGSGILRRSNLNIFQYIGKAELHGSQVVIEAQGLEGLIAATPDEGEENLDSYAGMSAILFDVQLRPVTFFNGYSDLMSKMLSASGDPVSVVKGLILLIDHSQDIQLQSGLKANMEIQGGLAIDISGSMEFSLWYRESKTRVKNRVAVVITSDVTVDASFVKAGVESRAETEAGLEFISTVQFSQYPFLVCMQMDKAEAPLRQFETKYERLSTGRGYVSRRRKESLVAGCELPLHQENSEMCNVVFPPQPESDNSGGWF
T1 sequence (P09103 21-509 partner limits assumed): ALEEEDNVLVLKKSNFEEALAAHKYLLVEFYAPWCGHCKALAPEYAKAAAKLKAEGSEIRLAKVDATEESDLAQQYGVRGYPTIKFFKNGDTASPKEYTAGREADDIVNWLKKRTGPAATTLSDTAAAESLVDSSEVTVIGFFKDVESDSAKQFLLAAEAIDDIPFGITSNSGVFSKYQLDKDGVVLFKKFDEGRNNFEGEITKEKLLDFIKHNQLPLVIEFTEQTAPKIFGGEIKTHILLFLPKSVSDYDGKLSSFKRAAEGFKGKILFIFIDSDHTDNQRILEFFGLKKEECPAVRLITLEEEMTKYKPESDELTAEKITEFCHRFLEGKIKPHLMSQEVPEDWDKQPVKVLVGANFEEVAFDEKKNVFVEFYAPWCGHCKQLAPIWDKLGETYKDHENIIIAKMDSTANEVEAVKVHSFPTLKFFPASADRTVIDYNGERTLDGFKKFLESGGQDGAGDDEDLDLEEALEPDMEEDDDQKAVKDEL
Experimental: After extensive washes with ice-cold PBS, small pieces (0.1 g) of liver and ˜1-cm segments of proximal small intestine were homogenized with 1 ml of ice-cold 1 mM Tris-HCl, pH 7.6, 1 mM EGTA, and 1 mM MgCl2 buffer in a glass homogenizer. The homogenates were centrifuged (SW55 Ti rotor, 50,000 rpm, 10° C., 1 h), and supernatants were used for MTP assay as described before (41; 42) using a kit (Chylos, Inc.).

[2] = MTP deficient (plpC) Reversa mice, oral 30 days
[3] = plpC-injected Reversa mice, Lova 50, T0 50, WY 10 mg/kg/day oral or Ω-3 FA 3 mg/kg/2 day ip, vs plpC control
[4] = CP-346086 15 mg/kg/day oral 1 week, vs control

## O=S(=O)(c1ccccc1)N(CC(F)(F)F)c1ccc(C(O)(C(F)(F)F)C(F)(F)F)cc1 [T0901317]
Reversa mice; [2]
  plasma cholesterol: no effect
  plasma triglycerides: no effect
Reversa mice; [3]
  hepatic free and total cholesterol: significantly reduced
  hepatic triglyceride: no effect

## O=C(Nc1ccc2c(c1)CCN(Cc1ncn[nH]1)C2)c1ccccc1-c1ccc(C(F)(F)F)cc1 [CP-346086]
[1]; CP-346086 15 mg/kg/day 1 week ± lovastatin 50 or WY14643 10 mg/kg/day, MTPi vs control, co-drugs vs MTPi
  plasma AST/ALT: significantly enhanced
[1]; [4]
  Plasma total and HDL cholesterol: unaffected
  plasma total and LDL triglyceride, and LDL cholesterol: significantly lower

## polyinosinic polycytidylic ribonucleic acid [plpC]
MTP
  reduction of hepatic MTP activity compared to controls: ~75%
Reversa mice; Reversa mice, plpC vs PBS
  decrease in non-HDL-cholesterol: ~40%
  decrease of plasma total triglyceride and cholesterol: 50%
  increase of hepatic free cholesterol: 50%
  increase of hepatic triglyceride: 2 fold
  increase of plasma ALT and AST: 2-3 fold
  reduction of hepatic cholesteryl esters (CE): ~30%
